# Laboratory results as given in article PMC9977050, “Thymoquinone effect on the Dictyostelium discoideum model correlates with functional roles for glutathione S-transferases in eukaryotic proliferation, chemotaxis, and development” (PLOS ONE, 2023).
# Assays:
# Assay in all cases: CDNB conjugation assay, absorbance at […] nm
# Assay type in all cases: biochemical
# rDdGSTA2 [1] = biological target: T1, rDdGSTA2 (Dictyostelium discoideum, UniProt Q556G3); settings: GSH and CDNB as substrates, 25°C; mode not determined; authors caution that thymoquinone may also bind GSH, CDNB or product
# T1 construct: gene gsta2-1; purified recombinant
# T1 sequence (Q556G3 2-198): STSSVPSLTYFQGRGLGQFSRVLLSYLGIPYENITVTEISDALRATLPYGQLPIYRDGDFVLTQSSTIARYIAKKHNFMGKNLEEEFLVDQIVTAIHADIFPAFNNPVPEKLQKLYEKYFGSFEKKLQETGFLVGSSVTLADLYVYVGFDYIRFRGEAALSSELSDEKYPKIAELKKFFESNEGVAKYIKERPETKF
# rDdGSTA2 [2] = biological target: T1, rDdGSTA2; settings: with GSH, 25°C
# rDdGSTA3 = biological target: T2, rDdGSTA3 (Dictyostelium discoideum, UniProt Q54VI4); settings: with GSH, 25°C
# T2 construct: gene gsta3; purified recombinant
# T2 sequence (Q54VI4 2-204): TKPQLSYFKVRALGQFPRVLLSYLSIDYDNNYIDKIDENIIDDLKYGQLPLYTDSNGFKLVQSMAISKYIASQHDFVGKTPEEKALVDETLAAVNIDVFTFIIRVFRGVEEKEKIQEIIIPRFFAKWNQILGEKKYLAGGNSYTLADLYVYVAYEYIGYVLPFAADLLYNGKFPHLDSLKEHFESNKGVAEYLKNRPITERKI
SMILES,% reduction of GS-DNB conjugate at 0.75 μM (rDdGSTA2 [1]) [%],"CDNB conjugation assay, absorbance at 340 nm (rDdGSTA2 [2])","CDNB conjugation assay, absorbance at 340 nm (rDdGSTA3)"
"CC1=CC(=O)C(C(C)C)=CC1=O [thymoquinone, 2-isopropyl-5-methylbenzo-1,4-quinone]",61,–,–
"O=[N+]([O-])c1ccc(Cl)c([N+](=O)[O-])c1 [CDNB, 1-chloro-2,4-dinitrobenzene]",–,"CDNB activity assays of purified, recombinant GSTs (rDdGSTA2, rDdGSTA3) were conducted","CDNB activity assays of purified, recombinant GSTs (rDdGSTA2, rDdGSTA3) were conducted"
